Laboratory results published in ChEMBL document CHEMBL4020759, “Sulfoximines as ATR inhibitors: Analogs of VE-821” (2017).
Active and inactive are the calls of the source. The calls are words filed in the database; no cut-off is given here.

Experiments:
[1] = system: IGROV-1; assay: Growth inhibition of human IGROV1 cells assessed as cell growth at 10 uM incubated for 48 hrs by sulforhodamine B assay; assay type: functional; conditions: IGROV-1, 48 h, read-out: Activity
[2] = system: MOLT-4; assay: Growth inhibition of human MOLT4 cells assessed as cell growth at 10 uM incubated for 48 hrs by sulforhodamine B assay; assay type: functional; conditions: MOLT-4, 48 h, read-out: Activity
[3] = system: MDA-MB-435; assay: Growth inhibition of human MDA-MB-435 cells assessed as cell growth at 10 uM incubated for 48 hrs by sulforhodamine B assay; assay type: functional; conditions: MDA-MB-435, 48 h, read-out: Activity
[4] = target: Serine/threonine-protein kinase ATR (Homo sapiens) (UniProt Q13535); assay: Inhibition of ATR in human U2OS cells assessed as reduction in hydroxyurea-induced Chk-1 phosphorylation at Ser345 residue by measuring ratio of GAPDH level to phosphorylated Chk-1 level at 10 uM preincubated for 1 hr followed by hydroxyurea challenge measured after 2 hrs by Western blot analysis; assay type: cell-based
[5] = system: EKVX; assay: Growth inhibition of human EKVX cells assessed as cell growth at 10 uM incubated for 48 hrs by sulforhodamine B assay; assay type: functional; conditions: read-out: Activity
[6] = system: Ramos; assay: Induction of apoptosis in human Ramos cells assessed as increase PARP-1 cleavage at 10 uM after 48 hrs by Western blot analysis; assay type: functional, cell-based
[7] = system: SN12C; assay: Growth inhibition of human SN12C cells assessed as cell growth at 10 uM incubated for 48 hrs by sulforhodamine B assay; assay type: functional; conditions: read-out: Activity
[8] = system: NCI-H23; assay: Growth inhibition of human NCI-H23 cells assessed as cell growth at 10 uM incubated for 48 hrs by sulforhodamine B assay; assay type: functional; conditions: NCI-H23, 48 h, read-out: Activity
[9] = system: UACC-62; assay: Growth inhibition of human UACC62 cells assessed as cell growth at 10 uM incubated for 48 hrs by sulforhodamine B assay; assay type: functional; conditions: UACC-62, 48 h, read-out: Activity
[10] = system: HOP-92; assay: Growth inhibition of human HOP92 cells assessed as cell growth at 10 uM incubated for 48 hrs by sulforhodamine B assay; assay type: functional; conditions: HOP-92, 48 h, read-out: Activity
[11] = system: SNB-75; assay: Growth inhibition of human SNB75 cells assessed as cell growth at 10 uM incubated for 48 hrs by sulforhodamine B assay; assay type: functional; conditions: SNB-75, 48 h, read-out: Activity
[12] = target: Serine/threonine-protein kinase ATR (Homo sapiens) (UniProt Q13535); assay: Inhibition of ATR in human U2OS cells assessed as reduction in etoposide-induced Chk-1 phosphorylation at Ser345 residue at 10 uM preincubated for 1 hr followed by etoposide challenge measured after 20 mins by Western blot analysis; assay type: cell-based
[13] = system: OVCAR-4; assay: Growth inhibition of human OVCAR4 cells assessed as cell growth at 10 uM incubated for 48 hrs by sulforhodamine B assay; assay type: functional; conditions: OVCAR-4, 48 h, read-out: Activity
[14] = system: MDA-MB-468; assay: Growth inhibition of human MDA-MB-468 cells assessed as cell growth at 10 uM incubated for 48 hrs by sulforhodamine B assay; assay type: functional; conditions: MDA-MB-468, 48 h, read-out: Activity
[15] = system: PC-3; assay: Growth inhibition of human PC3 cells assessed as cell growth at 10 uM incubated for 48 hrs by sulforhodamine B assay; assay type: functional; conditions: PC-3, 48 h, read-out: Activity
[16] = target: Serine-protein kinase ATM (Homo sapiens) (UniProt Q13315); assay: Inhibition of ATM in human U2OS cells assessed as reduction in hydroxyurea-induced H2AX phosphorylation at Ser139 residue at 3 to 10 uM preincubated for 1 hr followed by hydroxyurea challenge measured after 2 hrs by Western blot analysis; assay type: cell-based
[17] = system: MCF7; assay: Growth inhibition of human MCF7 cells assessed as cell growth at 10 uM incubated for 48 hrs by sulforhodamine B assay; assay type: functional; conditions: MCF7, 48 h, read-out: Activity
[18] = system: U-251; assay: Growth inhibition of human U251 cells assessed as cell growth at 10 uM incubated for 48 hrs by sulforhodamine B assay; assay type: functional; conditions: U-251, 48 h, read-out: Activity
[19] = target: Serine/threonine-protein kinase ATR (Homo sapiens) (UniProt Q13535); assay: Inhibition of ATR in human U2OS cells assessed as reduction in hydroxyurea-induced Chk-1 phosphorylation at Ser345 residue preincubated for 1 hr followed by hydroxyurea challenge measured after 2 hrs by Western blot analysis; assay type: cell-based
[20] = system: MDA-MB-231; assay: Growth inhibition of human MDA-MB-231 cells assessed as cell growth at 10 uM incubated for 48 hrs by sulforhodamine B assay; assay type: functional; conditions: MDA-MB-231, 48 h, read-out: Activity
[21] = target: Serine/threonine-protein kinase ATR (Homo sapiens) (UniProt Q13535); assay: Inhibition of ATR in human U2OS cells assessed as reduction in hydroxyurea-induced Chk-1 phosphorylation at Ser345 residue at 10 uM preincubated for 1 hr followed by hydroxyurea challenge measured after 1 hr by Western blot analysis; assay type: cell-based
[22] = system: T47D; assay: Growth inhibition of human T47D cells assessed as cell growth at 10 uM incubated for 48 hrs by sulforhodamine B assay; assay type: functional; conditions: read-out: Activity
[23] = system: HCT-116; assay: Growth inhibition of human HCT116 cells assessed as cell growth at 10 uM incubated for 48 hrs by sulforhodamine B assay; assay type: functional; conditions: HCT-116, 48 h, read-out: Activity
[24] = system: HCC 2998; assay: Growth inhibition of human HCC2998 cells assessed as cell growth at 10 uM incubated for 48 hrs by sulforhodamine B assay; assay type: functional; conditions: HCC 2998, 48 h, read-out: Activity
[25] = system: Malme-3M; assay: Growth inhibition of human MALME-3M cells assessed as cell growth at 10 uM incubated for 48 hrs by sulforhodamine B assay; assay type: functional; conditions: read-out: Activity
[26] = system: NCI-H460; assay: Growth inhibition of human NCI-H460 cells assessed as cell growth at 10 uM incubated for 48 hrs by sulforhodamine B assay; assay type: functional; conditions: NCI-H460, 48 h, read-out: Activity
[27] = system: KM12; assay: Growth inhibition of human KM12 cells assessed as cell growth at 10 uM incubated for 48 hrs by sulforhodamine B assay; assay type: functional; conditions: KM12, 48 h, read-out: Activity
[28] = system: HL-60(TB); assay: Growth inhibition of human HL-60(TB) cells assessed as cell growth at 10 uM incubated for 48 hrs by sulforhodamine B assay; assay type: functional; conditions: HL-60, 48 h, read-out: Activity
[29] = system: UO-31; assay: Growth inhibition of human UO31 cells assessed as cell growth at 10 uM incubated for 48 hrs by sulforhodamine B assay; assay type: functional; conditions: UO-31, 48 h, read-out: Activity
[30] = system: RPMI-8226; assay: Growth inhibition of human RPMI8226 cells assessed as cell growth at 10 uM incubated for 48 hrs by sulforhodamine B assay; assay type: functional; conditions: RPMI-8226, 48 h, read-out: Activity
[31] = system: Hs-578T; assay: Growth inhibition of human Hs578T cells assessed as cell growth at 10 uM incubated for 48 hrs by sulforhodamine B assay; assay type: functional; conditions: read-out: Activity
[32] = system: UACC-257; assay: Growth inhibition of human UACC257 cells assessed as cell growth at 10 uM incubated for 48 hrs by sulforhodamine B assay; assay type: functional; conditions: UACC-257, 48 h, read-out: Activity
[33] = system: HT-29; assay: Growth inhibition of human HT-29 cells assessed as cell growth at 10 uM incubated for 48 hrs by sulforhodamine B assay; assay type: functional; conditions: HT-29, 48 h, read-out: Activity

Sequence of Serine/threonine-protein kinase ATR (Homo sapiens) (Q13535 whole entry, looked up): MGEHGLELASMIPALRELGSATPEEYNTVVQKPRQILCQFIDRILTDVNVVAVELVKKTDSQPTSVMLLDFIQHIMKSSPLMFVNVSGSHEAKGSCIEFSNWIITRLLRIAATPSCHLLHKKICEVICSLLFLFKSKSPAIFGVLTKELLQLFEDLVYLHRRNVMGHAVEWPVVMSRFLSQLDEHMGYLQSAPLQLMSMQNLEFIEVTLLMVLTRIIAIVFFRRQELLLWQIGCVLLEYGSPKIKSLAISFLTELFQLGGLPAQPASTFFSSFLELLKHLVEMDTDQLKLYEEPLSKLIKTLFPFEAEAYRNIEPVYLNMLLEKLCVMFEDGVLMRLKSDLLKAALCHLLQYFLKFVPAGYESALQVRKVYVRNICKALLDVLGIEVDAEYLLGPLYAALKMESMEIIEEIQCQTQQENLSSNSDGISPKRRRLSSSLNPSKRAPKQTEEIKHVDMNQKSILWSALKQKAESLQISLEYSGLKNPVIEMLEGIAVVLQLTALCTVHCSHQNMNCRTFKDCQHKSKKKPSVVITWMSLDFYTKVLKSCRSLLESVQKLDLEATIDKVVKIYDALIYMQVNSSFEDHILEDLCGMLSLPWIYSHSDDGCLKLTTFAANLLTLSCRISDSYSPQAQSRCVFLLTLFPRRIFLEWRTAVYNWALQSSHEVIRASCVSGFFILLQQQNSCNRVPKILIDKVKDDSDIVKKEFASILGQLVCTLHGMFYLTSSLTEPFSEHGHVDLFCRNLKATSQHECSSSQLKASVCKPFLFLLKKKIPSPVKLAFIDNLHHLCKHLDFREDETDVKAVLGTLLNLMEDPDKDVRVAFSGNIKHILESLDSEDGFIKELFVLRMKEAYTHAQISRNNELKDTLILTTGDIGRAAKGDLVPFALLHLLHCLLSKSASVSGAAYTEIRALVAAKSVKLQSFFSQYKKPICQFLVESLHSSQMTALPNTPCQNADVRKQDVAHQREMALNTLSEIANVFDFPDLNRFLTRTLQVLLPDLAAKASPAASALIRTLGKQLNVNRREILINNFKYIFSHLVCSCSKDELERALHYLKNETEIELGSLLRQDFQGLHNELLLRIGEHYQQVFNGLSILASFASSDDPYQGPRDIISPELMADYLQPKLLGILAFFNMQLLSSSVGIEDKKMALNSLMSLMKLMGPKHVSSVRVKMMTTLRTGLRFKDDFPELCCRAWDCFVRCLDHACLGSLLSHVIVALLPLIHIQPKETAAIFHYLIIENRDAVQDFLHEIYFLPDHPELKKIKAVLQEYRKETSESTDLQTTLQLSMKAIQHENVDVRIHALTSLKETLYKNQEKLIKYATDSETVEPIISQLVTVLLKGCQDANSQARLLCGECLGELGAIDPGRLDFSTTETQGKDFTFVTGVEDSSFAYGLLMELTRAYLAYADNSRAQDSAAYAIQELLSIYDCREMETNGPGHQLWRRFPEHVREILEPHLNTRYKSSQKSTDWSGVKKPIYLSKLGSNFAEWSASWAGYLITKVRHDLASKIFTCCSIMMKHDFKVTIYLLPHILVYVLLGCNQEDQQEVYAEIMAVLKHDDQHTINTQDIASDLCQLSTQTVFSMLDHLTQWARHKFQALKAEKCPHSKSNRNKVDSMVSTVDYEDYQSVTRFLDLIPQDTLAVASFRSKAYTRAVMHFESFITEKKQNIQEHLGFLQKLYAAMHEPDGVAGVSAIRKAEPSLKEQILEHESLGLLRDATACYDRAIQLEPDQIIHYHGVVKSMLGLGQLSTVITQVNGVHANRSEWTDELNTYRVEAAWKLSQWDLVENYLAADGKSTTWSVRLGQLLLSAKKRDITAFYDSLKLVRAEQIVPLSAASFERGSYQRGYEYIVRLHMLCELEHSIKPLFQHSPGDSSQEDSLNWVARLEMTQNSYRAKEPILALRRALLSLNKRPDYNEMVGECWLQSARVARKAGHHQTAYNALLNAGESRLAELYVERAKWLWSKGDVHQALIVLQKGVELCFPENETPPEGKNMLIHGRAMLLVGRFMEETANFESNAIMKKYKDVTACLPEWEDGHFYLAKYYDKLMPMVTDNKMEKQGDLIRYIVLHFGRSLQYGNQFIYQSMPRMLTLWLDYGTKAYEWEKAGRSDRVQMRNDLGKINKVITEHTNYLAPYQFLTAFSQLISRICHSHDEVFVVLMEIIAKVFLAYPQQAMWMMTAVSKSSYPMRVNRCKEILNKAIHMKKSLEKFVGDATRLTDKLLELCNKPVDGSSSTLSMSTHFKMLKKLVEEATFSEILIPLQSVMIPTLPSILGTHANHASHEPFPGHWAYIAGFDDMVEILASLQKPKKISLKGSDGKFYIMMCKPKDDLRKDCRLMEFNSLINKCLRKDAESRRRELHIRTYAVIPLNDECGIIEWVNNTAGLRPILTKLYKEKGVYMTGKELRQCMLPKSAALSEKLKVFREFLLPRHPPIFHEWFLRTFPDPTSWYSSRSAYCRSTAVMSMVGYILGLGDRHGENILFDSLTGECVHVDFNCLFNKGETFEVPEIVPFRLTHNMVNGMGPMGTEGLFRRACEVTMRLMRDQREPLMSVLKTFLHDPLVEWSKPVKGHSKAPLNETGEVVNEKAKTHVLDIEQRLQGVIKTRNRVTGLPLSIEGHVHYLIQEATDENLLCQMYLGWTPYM

Structure (SMILES) | growth at 10 µM [1] [%] | growth at 10 µM [2] [%] | growth at 10 µM [3] [%] | Ratio [4] | growth at 10 µM [5] [%] | Activity [6] | growth at 10 µM [7] [%] | growth at 10 µM [8] [%] | growth at 10 µM [9] [%] | growth at 10 µM [10] [%] | growth at 10 µM [11] [%] | inhibition [12] | growth at 10 µM [13] [%] | growth at 10 µM [14] [%] | growth at 10 µM [15] [%] | inhibition [16] | growth at 10 µM [17] [%] | growth at 10 µM [18] [%] | inhibition [19] | growth at 10 µM [20] [%] | other results
CS(=O)(=NC#N)c1ccc(-c2cnc(N)c(C(=O)Nc3ccccc3)n2)cc1 (stereo unspecified) | 59.8 | 64.7 | 87.7 | 43.1 | 88.1 | Active | 78.8 | 81.2 | 74.7 | 106 | 56.9 | Active | 97 | 96.7 | 90.2 | inactive | 45.5 | 68.5 | Dose-dependent effect | 102 | inhibition [21]: Active; growth at 10 µM [22]: 99%; growth at 10 µM [23]: 86.8%; growth at 10 µM [24]: 105%; growth at 10 µM [25]: 127%; growth at 10 µM [26]: 83.9%; growth at 10 µM [27]: 78.2%; growth at 10 µM [28]: 108%; growth at 10 µM [29]: 48.1%; growth at 10 µM [30]: 105%; growth at 10 µM [31]: 55%; growth at 10 µM [32]: 102%; growth at 10 µM [33]: 79.9%
C/S(=N\C#N)c1ccc(-c2cnc(N)c(C(=O)Nc3ccccc3)n2)cc1 (stereo unspecified) | 56.9 | 74.5 | 84 | 22.5 | 107 | Active | 82.4 | 98.2 | 82.2 | 93.4 | 65.2 | Active | 87.3 | 84.6 | 86 | inactive | 75.7 | 93.2 | Dose-dependent effect | 101 | inhibition [21]: Active; growth at 10 µM [22]: 82.9%; growth at 10 µM [23]: 73.1%; growth at 10 µM [24]: 109%; growth at 10 µM [25]: 80%; growth at 10 µM [26]: 87.4%; growth at 10 µM [27]: 86.5%; growth at 10 µM [28]: 79.2%; growth at 10 µM [29]: 49.1%; growth at 10 µM [30]: 101%; growth at 10 µM [31]: 74.6%; growth at 10 µM [32]: 106%; growth at 10 µM [33]: 76.3%
